# PubChem BioAssay (NCI)
#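 The compound was tested at five concentrations on cells cultured in 96-well plates, with a 48-hour exposure period. At the GI50, growth is halved. TGI is the concentration that stops growth completely.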
# How the values were obtained:
# Test in all cases: inhibition of tumour cell growth, NCI panel, 48 h
# BT-549 breast = tested on: BT-549 breast
# LOX IMVI melanoma = tested on: LOX IMVI melanoma
# COLO 205 colon = tested on: COLO 205 colon
# RXF 393 renal = tested on: RXF 393 renal
# 786-0 renal = tested on: 786-0 renal
# KM12 colon = tested on: KM12 colon
# U251 CNS = tested on: U251 CNS
# IGROV1 ovarian = tested on: IGROV1 ovarian
# MDA-MB-435 = tested on: MDA-MB-435
# SK-MEL-2 melanoma = tested on: SK-MEL-2 melanoma
# A549 NSCLC = tested on: A549 NSCLC
# RPMI-8226 leukemia = tested on: RPMI-8226 leukemia
# SF-295 CNS = tested on: SF-295 CNS
# MOLT-4 leukemia = tested on: MOLT-4 leukemia
# HOP-92 NSCLC = tested on: HOP-92 NSCLC
# OVCAR-5 ovarian = tested on: OVCAR-5 ovarian
# NCI/ADR-RES ovarian = tested on: NCI/ADR-RES ovarian
# UACC-257 melanoma = tested on: UACC-257 melanoma
# NCI-H522 lung = tested on: NCI-H522 lung
# SR leukemia = tested on: SR leukemia
# SF-539 CNS = tested on: SF-539 CNS
# NCI-H226 lung = tested on: NCI-H226 lung
# HOP-62 NSCLC = tested on: HOP-62 NSCLC
# HCT-116 colon = tested on: HCT-116 colon
# SN12C renal = tested on: SN12C renal
# CAKI-1 renal = tested on: CAKI-1 renal
# HT29 colon = tested on: HT29 colon
# NCI-H460 lung = tested on: NCI-H460 lung
# OVCAR-4 ovarian = tested on: OVCAR-4 ovarian
# M14 melanoma = tested on: M14 melanoma
# SNB-19 CNS = tested on: SNB-19 CNS
# OVCAR-3 ovarian = tested on: OVCAR-3 ovarian
# OVCAR-8 ovarian = tested on: OVCAR-8 ovarian
# CCRF-CEM leukemia = tested on: CCRF-CEM leukemia
# HL-60(TB) leukemia = tested on: HL-60(TB) leukemia
# SK-OV-3 ovarian = tested on: SK-OV-3 ovarian
# HCT-15 colon = tested on: HCT-15 colon
# MALME-3M melanoma = tested on: MALME-3M melanoma
# MDA-MB-231 breast = tested on: MDA-MB-231 breast
# DU-145 prostate = tested on: DU-145 prostate
# SK-MEL-28 melanoma = tested on: SK-MEL-28 melanoma
# UO-31 renal = tested on: UO-31 renal
# SNB-75 CNS = tested on: SNB-75 CNS
# SW-620 colon = tested on: SW-620 colon
# SK-MEL-5 melanoma = tested on: SK-MEL-5 melanoma
# K-562 leukemia = tested on: K-562 leukemia
# T-47D breast = tested on: T-47D breast
# HS 578T breast = tested on: HS 578T breast
# ACHN renal = tested on: ACHN renal
# HCC-2998 colon = tested on: HCC-2998 colon
# SF-268 CNS = tested on: SF-268 CNS
# TK-10 renal = tested on: TK-10 renal
# MCF7 breast = tested on: MCF7 breast
# A498 renal = tested on: A498 renal
# EKVX NSCLC = tested on: EKVX NSCLC
# PC-3 prostate = tested on: PC-3 prostate
# NCI-H23 lung = tested on: NCI-H23 lung
smiles,measurement,setting,value
Nc1c(C(=O)Nc2cccc(Cl)c2Cl)sc2nc3c(cc12)C(=O)CCC3,GI50,BT-549 breast,> 100 µM
same,TGI,BT-549 breast,> 100 µM
same,GI50,LOX IMVI melanoma,> 100 µM
same,TGI,LOX IMVI melanoma,> 100 µM
same,GI50,COLO 205 colon,1.61 µM
same,TGI,COLO 205 colon,> 100 µM
same,GI50,RXF 393 renal,> 100 µM
same,TGI,RXF 393 renal,> 100 µM
same,GI50,786-0 renal,> 100 µM
same,TGI,786-0 renal,> 100 µM
same,GI50,KM12 colon,> 100 µM
same,TGI,KM12 colon,> 100 µM
same,GI50,U251 CNS,> 100 µM
same,TGI,U251 CNS,> 100 µM
same,GI50,IGROV1 ovarian,> 100 µM
same,TGI,IGROV1 ovarian,> 100 µM
same,GI50,MDA-MB-435,0.277 µM
same,TGI,MDA-MB-435,> 100 µM
same,TGI,SK-MEL-2 melanoma,> 100 µM
same,GI50,A549 NSCLC,0.866 µM
same,TGI,A549 NSCLC,> 100 µM
same,GI50,RPMI-8226 leukemia,> 100 µM
same,TGI,RPMI-8226 leukemia,> 100 µM
same,GI50,SF-295 CNS,0.476 µM
same,TGI,SF-295 CNS,> 100 µM
same,GI50,MOLT-4 leukemia,> 100 µM
same,TGI,MOLT-4 leukemia,> 100 µM
same,GI50,HOP-92 NSCLC,> 100 µM
same,TGI,HOP-92 NSCLC,> 100 µM
same,GI50,OVCAR-5 ovarian,> 100 µM
same,TGI,OVCAR-5 ovarian,> 100 µM
same,GI50,NCI/ADR-RES ovarian,> 100 µM
same,TGI,NCI/ADR-RES ovarian,> 100 µM
same,GI50,UACC-257 melanoma,> 100 µM
same,TGI,UACC-257 melanoma,> 100 µM
same,GI50,NCI-H522 lung,> 100 µM
same,TGI,NCI-H522 lung,> 100 µM
same,GI50,SR leukemia,> 100 µM
same,TGI,SR leukemia,> 100 µM
same,GI50,SF-539 CNS,> 100 µM
same,TGI,SF-539 CNS,> 100 µM
same,GI50,NCI-H226 lung,> 100 µM
same,TGI,NCI-H226 lung,> 100 µM
same,GI50,HOP-62 NSCLC,> 100 µM
same,TGI,HOP-62 NSCLC,> 100 µM
same,GI50,HCT-116 colon,> 100 µM
same,TGI,HCT-116 colon,> 100 µM
same,GI50,SN12C renal,> 100 µM
same,TGI,SN12C renal,> 100 µM
same,GI50,CAKI-1 renal,> 100 µM
same,TGI,CAKI-1 renal,> 100 µM
same,GI50,HT29 colon,> 100 µM
same,TGI,HT29 colon,> 100 µM
same,GI50,NCI-H460 lung,0.601 µM
same,TGI,NCI-H460 lung,> 100 µM
same,GI50,OVCAR-4 ovarian,> 100 µM
same,TGI,OVCAR-4 ovarian,> 100 µM
same,GI50,M14 melanoma,> 100 µM
same,TGI,M14 melanoma,> 100 µM
same,GI50,SNB-19 CNS,4.64 µM
same,TGI,SNB-19 CNS,> 100 µM
same,GI50,OVCAR-3 ovarian,> 100 µM
same,TGI,OVCAR-3 ovarian,> 100 µM
same,GI50,OVCAR-8 ovarian,> 100 µM
same,TGI,OVCAR-8 ovarian,> 100 µM
same,GI50,CCRF-CEM leukemia,> 100 µM
same,TGI,CCRF-CEM leukemia,> 100 µM
same,GI50,HL-60(TB) leukemia,> 100 µM
same,TGI,HL-60(TB) leukemia,> 100 µM
same,GI50,SK-OV-3 ovarian,3.8 µM
same,TGI,SK-OV-3 ovarian,> 100 µM
same,GI50,HCT-15 colon,> 100 µM
same,TGI,HCT-15 colon,> 100 µM
same,GI50,MALME-3M melanoma,> 100 µM
same,TGI,MALME-3M melanoma,> 100 µM
same,GI50,MDA-MB-231 breast,> 100 µM
same,TGI,MDA-MB-231 breast,> 100 µM
same,GI50,DU-145 prostate,> 100 µM
same,TGI,DU-145 prostate,> 100 µM
same,GI50,SK-MEL-28 melanoma,> 100 µM
same,TGI,SK-MEL-28 melanoma,> 100 µM
same,GI50,UO-31 renal,> 100 µM
same,TGI,UO-31 renal,> 100 µM
same,GI50,SNB-75 CNS,> 100 µM
same,TGI,SNB-75 CNS,> 100 µM
same,GI50,SW-620 colon,61.2 µM
same,TGI,SW-620 colon,> 100 µM
same,GI50,SK-MEL-5 melanoma,3.54 µM
same,TGI,SK-MEL-5 melanoma,> 100 µM
same,GI50,K-562 leukemia,0.958 µM
same,TGI,K-562 leukemia,> 100 µM
same,GI50,T-47D breast,> 100 µM
same,TGI,T-47D breast,> 100 µM
same,GI50,HS 578T breast,> 100 µM
same,TGI,HS 578T breast,> 100 µM
same,GI50,ACHN renal,> 100 µM
same,TGI,ACHN renal,> 100 µM
same,GI50,HCC-2998 colon,> 100 µM
same,TGI,HCC-2998 colon,> 100 µM
same,GI50,SF-268 CNS,> 100 µM
same,TGI,SF-268 CNS,> 100 µM
same,GI50,TK-10 renal,> 100 µM
same,TGI,TK-10 renal,> 100 µM
same,GI50,MCF7 breast,> 100 µM
same,TGI,MCF7 breast,> 100 µM
same,GI50,A498 renal,0.399 µM
same,TGI,A498 renal,9.33 µM
COc1cc2c3c(n(C)c(=O)c2cc1OC)-c1cc2c(cc1/C3=C\CCNCCCN)OCO2,GI50,BT-549 breast,4.65 µM
same,TGI,BT-549 breast,21.1 µM
same,GI50,COLO 205 colon,0.487 µM
same,TGI,COLO 205 colon,15.4 µM
same,GI50,RXF 393 renal,1.06 µM
same,TGI,RXF 393 renal,14.5 µM
same,GI50,786-0 renal,1.99 µM
same,TGI,786-0 renal,12.5 µM
same,GI50,KM12 colon,1.41 µM
same,TGI,KM12 colon,10.5 µM
same,GI50,U251 CNS,0.47 µM
same,TGI,U251 CNS,3.44 µM
same,GI50,IGROV1 ovarian,1.82 µM
same,TGI,IGROV1 ovarian,> 100 µM
same,GI50,MDA-MB-435,2.48 µM
same,TGI,MDA-MB-435,15.9 µM
same,GI50,SK-MEL-2 melanoma,5.09 µM
same,TGI,SK-MEL-2 melanoma,> 100 µM
same,GI50,A549 NSCLC,4.53 µM
same,TGI,A549 NSCLC,> 100 µM
same,GI50,MOLT-4 leukemia,0.364 µM
same,TGI,MOLT-4 leukemia,44.4 µM
same,GI50,HOP-92 NSCLC,1.45 µM
same,TGI,HOP-92 NSCLC,11.1 µM
same,GI50,OVCAR-5 ovarian,3.04 µM
same,TGI,OVCAR-5 ovarian,13.4 µM
same,GI50,NCI/ADR-RES ovarian,> 100 µM
same,TGI,NCI/ADR-RES ovarian,> 100 µM
same,TGI,UACC-257 melanoma,39.7 µM
same,GI50,NCI-H522 lung,1.67 µM
same,TGI,NCI-H522 lung,25.5 µM
same,GI50,SF-539 CNS,1.65 µM
same,TGI,SF-539 CNS,9.95 µM
same,GI50,NCI-H226 lung,0.987 µM
same,TGI,NCI-H226 lung,5.02 µM
same,GI50,HOP-62 NSCLC,3.85 µM
same,TGI,HOP-62 NSCLC,15.6 µM
same,GI50,HCT-116 colon,1.49 µM
same,TGI,HCT-116 colon,3.39 µM
same,GI50,EKVX NSCLC,3.83 µM
same,TGI,EKVX NSCLC,18 µM
same,GI50,SN12C renal,1.18 µM
same,TGI,SN12C renal,8.41 µM
same,GI50,CAKI-1 renal,3.44 µM
same,TGI,CAKI-1 renal,14.3 µM
same,GI50,HT29 colon,1.86 µM
same,TGI,HT29 colon,> 100 µM
same,GI50,NCI-H460 lung,0.853 µM
same,TGI,NCI-H460 lung,20.3 µM
same,GI50,OVCAR-4 ovarian,1.04 µM
same,TGI,OVCAR-4 ovarian,7.56 µM
same,GI50,M14 melanoma,5.32 µM
same,TGI,M14 melanoma,20.5 µM
same,GI50,SNB-19 CNS,1.42 µM
same,TGI,SNB-19 CNS,14.7 µM
same,GI50,OVCAR-8 ovarian,2.98 µM
same,TGI,OVCAR-8 ovarian,44.6 µM
same,GI50,CCRF-CEM leukemia,0.686 µM
same,TGI,CCRF-CEM leukemia,13.4 µM
same,GI50,PC-3 prostate,2.09 µM
same,TGI,PC-3 prostate,10.2 µM
same,GI50,HL-60(TB) leukemia,0.927 µM
same,TGI,HL-60(TB) leukemia,8.03 µM
same,GI50,SK-OV-3 ovarian,2.73 µM
same,TGI,SK-OV-3 ovarian,11.7 µM
same,GI50,HCT-15 colon,16.9 µM
same,TGI,HCT-15 colon,39.6 µM
same,GI50,MALME-3M melanoma,0.863 µM
same,TGI,MALME-3M melanoma,4.02 µM
same,GI50,MDA-MB-231 breast,0.58 µM
same,TGI,MDA-MB-231 breast,3.05 µM
same,GI50,SK-MEL-28 melanoma,2.87 µM
same,TGI,SK-MEL-28 melanoma,91.8 µM
same,GI50,UO-31 renal,42.5 µM
same,TGI,UO-31 renal,> 100 µM
same,GI50,SNB-75 CNS,11.4 µM
same,TGI,SNB-75 CNS,> 100 µM
same,GI50,K-562 leukemia,2.08 µM
same,TGI,K-562 leukemia,12.1 µM
same,GI50,T-47D breast,2.64 µM
same,TGI,T-47D breast,15.3 µM
same,GI50,HS 578T breast,2.84 µM
same,TGI,HS 578T breast,9.52 µM
same,GI50,ACHN renal,1.3 µM
same,TGI,ACHN renal,6.89 µM
same,GI50,NCI-H23 lung,2.67 µM
same,TGI,NCI-H23 lung,12.4 µM
same,GI50,SF-268 CNS,2.43 µM
same,TGI,SF-268 CNS,11.8 µM
same,GI50,TK-10 renal,5.29 µM
same,TGI,TK-10 renal,22.4 µM
same,GI50,MCF7 breast,2.77 µM
same,TGI,MCF7 breast,13.4 µM
